Experiments:
Type in all cases: cell-based, human
[1] = system: RCC4 (renal cell carcinoma); experiment: Study 2: cell viability (CellTiter-Glo) in DMEM without sodium pyruvate; settings: increase in BOHB concentration (0, 4, 12 mM), no pyruvate, 3 d
Description: (§1) Cell lines established from human colon carcinoma (HCT15, NCI-H508 and COLO205), renal cell carcinoma (769-P, 786-O and RCC4) and glioblastoma (LN-18, A-172 and U-118 MG) were selected for the analysis. All cell lines were obtained from American Type Culture Collection (ATCC, LGC standards, UK) except for RCC4 and HCT15 that was purchased from Sigma-Aldrich (Merck, Germany). In addition, primary human renal cell carcinoma (RCC) cells isolated from patient nephrectomies were included in the study. The culture conditions were as recommended by American Type Culture Collection (ATCC) were followed, that is to grow cells in DMEM medium with the addition of 1 mM sodium pyruvate, which was also added to the RPMI-1640 medium in order to keep the conditions more similar 769-P, RCC4, LN-18, A-172, U-118 MG and the primary RCC cells were cultured in DMEM high glucose medium, while 786-O HCT15, NCI-H508 and COLO205 were cultured in RPMI-1640 medium according to the recommendations from ATCC. […]
(§2) CellTiter-Glo Luminescent cell viability assay (Promega) was used as a readout of viability.
(§3) For each cell line, optimal number of cells as determined above were seeded into 96-well plates on day 0. […] After 3d incubation in test condition medium, with daily medium changes, cell viability was determined using the CellTiter-Glo viability test. […]

A172 (glioblastoma) = experiment: as above; settings: increase in BOHB concentration (0, 4, 12 mM), no pyruvate, 3 d
Description: as §1, §2, §3

glioma cell line U118MG = experiment: Example 2: culture in Medium A-C with BOHB and/or Acac (CellTiter-Glo)
Description: (§4) The ketone bodies acetoacetate (Acac), BOHB and acetone are produced by the liver during fasting or starvation. BOHB is the major ketone body in mammals, while Acac constitutes around 20%.
(§5) Cells were maintained in RPMI-1640 medium (31870-025 GIBCO) with the addition of 10% serum, 200 mM L-glutamine and 1% penicillin-streptomycin (PEST) in humidified chambers at 37° C. and 5% CO2. For hypoxic conditions (5% O2), cells were maintained in a Galaxy 14 S CO2 incubator (Eppendorf) where N2 was used to adjust the O2 level to 5%.
(§6) Medium B and C were prepared from RPMI1640 modified medium powder without L-glutamine, glucose and amino acids (R9010-01, US Biological Life Sciences). For 1L medium, 7.4 g powder was dissolved in 900 ml sterile water without heating and 2 g sodium bicarbonate was added. Amino acids listed in Table 5 were added to the same concentration as in full RPMI1640 medium (Table 5). After all additions, the medium was sterilized by filtering through 0.22 um membranes and divided into two bottles.
(§7) To model Cancer Dialysis conditions in Medium C, the levels of these nutrients were reduced to 50% of the physiological levels. As for Medium A, 1% PEST and 10% dialyzed serum were added to Medium B and C. Sodium pyruvate, that is a common addition in cell culture medium, was not present in any of the used media.
(§8) Stock solutions of DL-β-Hydroxybutyric acid sodium salt (H6501, Sigma Aldrich) and Lithium Acetoacetate (A8509, Sigma Aldrich) were prepared in water, sterile filtered, aliquoted and stored at −20° C. Lithium Chloride (L7026, Sigma Aldrich) was used as a control for the addition of Lithium in the Li-Acac.
(§9) CellTiter-Glo Luminescent cell viability assay (Promega) was used as a readout of cell numbers according to the manufacturers' instructions. In experiments shown in FIG. 7-8, double plates were seeded and treated. One set of plates was used for collection of medium for lactate measurement (see below) and the CellTiterGlo-assay. The other set of plates was frozen at −80° C. at the end of the experiment. The frozen plates were intended for the CyQuant cell proliferation assay (Thermo Fisher) that measures the amount of DNA per well. Analysis of the amounts of cells by both CellTiterGlo and CyQuant assays would ensure that effects of the culture conditions on viability or growth rate would not be concealed by simultaneous changes in ATP-levels per cell.
(§10) Next, it was decided to also include Acac in the study and analyze the viability of cells cultured in the presence of BOHB and Acac alone or in combination in Medium A-C. The experiment was performed at 21% and 5% O2. The experiments were made with glioma cell lines A172 and U118MG.
(§11) Being a chiral molecule, BOHB exists as two enantiomers, D-and L-BOHB. D-BOHB is normally produced and metabolized in humans. The BOHB-salt used in this study contains a mixture of 50:50 of D-and L-BOHB. In order to ensure a high presence of the active D-form, the total concentration of BOHB added was increased to 16 mM, giving a level of 8 mM D-BOHB. To keep the total concentration of active ketones constant, 8 mM Acac was used, and for the combination of both ketones, the levels were adjusted to 4 mM Acac and 8 mM BOHB (containing 4 mM D-BOHB).
(§12) The Acac available for in vitro use is in the form of a lithium salt. Since lithium itself can affect the viability of cancer cells [Cohen-Harazi et al., Anticancer Res 2020; 40:3831-3837], 8 mM LiCl was used as a control for the 8 mM Acac data point and 4 mM LiCl was used as a control for the 4 mM Acac/8 mM BOHB data.

glioma cell line A172 = experiment: as above; settings: for growth: normoxic, combined experiment 2-6, 16 mM BOHB or 8 mM Acac added separately, FIG. 9
Description: as §4, §5, §6, §7, §8, §9, §10, §11, §12

RCC4 renal carcinoma = experiment: Example 2: growth in Medium A-C with or without ketones (CellTiter-Glo); settings: nutrient restricted Medium C, FIG. 11
Description: To study the effect of a nutrient restricted ketogenic environment on cancer cell growth in vitro, three different cell culture media were formulated. Medium A was full RPMI1640 medium that the cell lines routinely are cultured in. Medium B was used as an approximation of the conditions found in normal human serum. The levels of glucose, glutamine, serine, glycine and arginine were adjusted to match normal physiological levels found in human serum. These nutrients were selected based on their reported use as energy source and effects on cancer cell metabolic state. Medium C was used to emulate the ketogenic nutrient restricted Cancer Dialysis condition. Here, the levels of the selected nutrients were reduced to half of the physiological levels in Medium B, and the ketone body BOHB was added. […]
All cell lines were purchased from ATCC (ATCC, LGC standards) except for RCC4 that was from Sigma-Aldrich (Merck). […] Optimal seeding density was determined for each cell line in 96-well plates cultured for 3 days in standard cell culture medium. […]
In Medium B, to mimic physiological conditions, the levels of glutamine, serine, glycine, arginine and glucose were set to the median of measured levels in human serum, based on data from the Mayo Clinic Laboratories (https://www.mayocliniclabs.com/test-catalog/Clinical+and+Interpretive/9265). […]

[2] = Medium A, normoxia and hypoxia, 16 mM BOHB alone
[3] = Medium C, 21 and 5% O2, 16 mM BOHB
[4] = Medium A, normoxia and hypoxia, 8 mM Acac compared to 8 mM LiCl control
[5] = Medium B, 21% O2, 8 mM Acac compared to 8 mM LiCl control
[6] = Medium C, 8 mM Acac alone compared to 8 mM LiCl control

SMILES	proliferation of cells (cell viability) [1]	proliferation of cells (cell viability) (A172 (glioblastoma))	growth inhibitory effect (glioma cell line U118MG; [2])	number of cells, % compared to C-medium without BOHB (glioma cell line U118MG; [3])	growth inhibitory effect (glioma cell line A172; [2])	number of cells, % of the amount in Medium B without BOHB (glioma cell line A172; Medium B, hypoxia, 16 mM BOHB)	number of cells, % compared to C-medium without BOHB (glioma cell line A172; [3])	growth (glioma cell line A172; Medium C)	increased sensitivity to high levels of ketones (RCC4 renal carcinoma)	number of cells (glioma cell line U118MG; [4])	number of cells (glioma cell line U118MG; [5])	amounts of cells (glioma cell line U118MG; [6])	number of cells (glioma cell line A172; [4])	number of cells (glioma cell line A172; [5])	amounts of cells (glioma cell line A172; [6])
CC(O)CC(=O)[O-].[Na+] (racemic) [BOHB, DL-β-Hydroxybutyric acid sodium salt]	suppresses the proliferation of cells	suppresses the proliferation of cells	no growth inhibitory effect	around 30%	no growth inhibitory effect	approximately 70%	around 30%	trend of reduced growth	not found	–	–	–	–	–	–
CC(=O)CC(=O)[O-].[Li+] [Acac, Lithium Acetoacetate]	–	–	–	–	–	–	–	trend of reduced growth	–	did not reduce the number of cells further	reduced the number of cells significantly	did not significantly reduce the amounts of cells	did not reduce the number of cells further	reduced the number of cells significantly	did not significantly reduce the amounts of cells

— US20250025615A1, “NEW DIALYSIS FLUID” (GAMBRO LUNDIA AB, priority 2021, published 2025)
